Holding throughout (type): in vivo
Experiment [1] deals with BTBR and B6 mice. The experiment is described as follows: Self-grooming paradigm (SGP). The note with it: for time spent self-grooming vs vehicle-treated B6 mice / time spent self-grooming vs vehicle-treated BTBR mice: i.p., MEM 5 mg/kg, ARP 1 mg/kg; for time spent self-grooming vs vehicle-treated B6 mice: ST-2223 2.5, 5 and 10 mg/kg; for time spent self-grooming vs vehicle-treated BTBR mice: ST-2223 5 and 10 mg/kg. How it is done: (§1) The drugs tested included ST-2223 [N-(4-(4-(2-methoxyphenyl)piperazin-1-yl)butyl)-6-(3-(piperidin-1-yl)propoxy)-2-naphthamide] that was designed and synthesized in the Institute of Pharmaceutical and Medicinal Chemistry, Heinrich Heine University Düsseldorf, Germany, and in accordance with previously described methodologies (Supplementary Materials). Aripiprazole (ARP) (1 mg/kg, i.p.) and memantine (MEM, 5 mg/kg, i.p.), as reference drugs, were purchased from Sigma-Aldrich (St. Louis, MO, USA). The CNS-penetrant H3R agonist (R)-α-methylhistamine (RAM, 10 mg/kg, i.p.) was purchased from Sigma-Aldrich, St. Louis, MO, USA. T. Protease and the phosphatase inhibitor cocktail were procured from Thermo Scientific, USA. The assay kit for reduced glutathione (GSH) was obtained from Sigma-Aldrich (St. Louis, MO, USA). The lipid peroxidation assay kit for estimation of malondialdehyde (MDA) was purchased from North West Life Science (Vancouver, WA, USA). The assay kits for superoxide dismutase (SOD) and catalase (CAT) were purchased from Cayman Chemical (Ann Arbor, MI, USA). The drugs were prepared daily using 1% dimethyl sulfoxide (DMSO) in 0.9% saline, for intraperitoneal (i.p.) administration at a volume of 10 mL/kg of body weight. Vehicle treatment consisted of 1% DMSO in 0.9% normal saline. All drugs were i.p. administered 30 min before the behavioral test. The doses of these drugs were chosen based on previous reports. Neurobehavioral assessment was performed blindly with respect to experimental group and drug administration.
In the SGP test, mice were scored for spontaneous grooming behaviors. […] To measure SGP, each mouse was placed individually in a standard clear plastic cage (28 cm wide × 17 cm long × 12 cm high) for a total of 20 min. Mice were allowed to freely explore the cage for the entire test, the first 10 min served as a habituation period. After 10 min habituation, each mouse was scored with a stopwatch for 10 min for cumulative time spent grooming all body regions. Grooming behavior included head washing, body grooming, genital/tail grooming and paw and leg licking. The observer sat approximately 1 m from the test cage during the second 10 min of testing.

Experiment [2] relates to BTBR and B6 mice. The experiment is described as follows: Open field test (OFT): locomotor activity and anxiety levels. Conditions: i.p.; for total distance travelled (OFT) / time spent in the periphery (OFT), effect of treatment: B6 and BTBR mice; for total distance travelled (OFT) / time spent in the central arena (OFT) vs vehicle-treated B6 mice / time spent in center (OFT) vs vehicle-treated BTBR mice: ST-2223 2.5, 5 and 10 mg/kg, MEM 5 mg/kg, ARP 1 mg/kg; for time spent in the periphery (OFT), effect of treatment: ST-2223 2.5, 5 or 10 mg/kg, MEM, ARP. How it is done:
as §1
The open field test (OFT) systematically evaluates exploration behaviors executed in a novel open field (considered as a novel environment), as an independent control for the effects of the drugs on physical activity that could confound the interpretation of the results from the self-grooming, anxiety and spontaneous alternation. Mice were allowed to freely explore an open-field arena (45 × 45 × 30 cm), to assess general locomotor activity, and anxiety-related behaviors. The center arena was defined as the central 23 × 23 cm area. Mice were given 5 min to habituate in the center area of the arena before the recording started for the actual behavioral assessments. Recording lasted for 10 min using charge-coupled device (CCD) camera-assisted motion tracking apparatus and software (EthoVision 3.1, Noldus Information Technology, The Netherlands), and the total distance moved in the whole arena, time spent in the center and periphery were recorded. Test chambers were cleaned with 70% ethanol after each trial and were allowed to dry until ethanol evaporation and odor dissipation had occurred. When interpreting the results observed in this assessment, less time spent in the center was considered as an indicator for high levels of anxiety-like behaviors and total distance travelled signified the overall locomotor activity of tested animals.

Another experiment relates to malondialdehyde (MDA). As to the kind of experiment: Malondialdehyde (MDA) assay in brain parts of treated BTBR mice. The note with it: i.p., ST-2223 5 mg/kg, RAM 10 mg/kg, ARP 1 mg/kg, MEM 5 mg/kg, mean ± SEM; for MDA, Striatum: n = 3-6, BTBR vehicle 52.7 ± 3.4; for MDA, Hippocampus: n = 3-6, BTBR vehicle 53.8 ± 2.9; for MDA, Cerebellum: n = 3-6, BTBR vehicle 54.0 ± 6.4; for MDA, Prefrontal Cortex: n = 3-6, BTBR vehicle 58.3 ± 1.8. How it is done:
At the end of the behavioral assessments, the animals were sacrificed following previously published protocols. Animals were anesthetized with pentobarbital (40 mg/kg, body weight, i.p.), sacrificed, and perfused via intracardial infusion to wash out the blood, using 1× PBS (0.01 M phosphate buffer, 0.0027 M potassium chloride and 0.137 M sodium chloride) at pH 7.4. […] The brains were then quickly removed and placed on an ice plate. The cerebellum, hippocampus, prefrontal and striatum were excised from the brain and snap-frozen in liquid nitrogen for further use in biochemical assessments. On the day of the biochemical tests, the tissues were homogenized using radioimmunoprecipitation assay (RIPA) buffer (50 mM Tris HCl, pH 7.4, 140 mM NaCl, 1 mM EDTA, 0.5% Triton X-100 and 0.5% sodium deoxycholate) supplemented with protease and phosphatase inhibitors. Then, the homogenates were centrifuged at 14,000 rpm for 30 min (4 °C), and the supernatant was used for evaluation of lipid peroxidation, glutathione, and antioxidant enzymes using spectrophotometric measurements and enzyme-linked immunosorbent assays (ELISA)..
This assay was performed to estimate the amount of lipid peroxidation in experimental animals using an MDA detection kit following the manufacturer’s instructions, as previously described in our laboratories. Briefly, 250 μL of sample or calibrator was incubated with thiobarbituric acid, followed by rigorous vortexing. After 1 h incubation at 60 °C, the mixture was centrifuged at 10,000× g for 2–3 min and the reaction mixture was transferred to a cuvette. Spectra were measured at 532 nm and the results are expressed as µM MDA/mg protein.

As for `COc1ccccc1N1CCN(CCCCNC(=O)c2ccc3cc(OCCCN4CCCCC4)ccc3c2)CC1` [ST-2223, N-(4-(4-(2-methoxyphenyl)piperazin-1-yl)butyl)-6-(3-(piperidin-1-yl)propoxy)-2-naphthamide], in the experiment with BTBR and B6 mice [1], the “time spent self-grooming vs vehicle-treated B6 mice” value is reported as “did not alter”. Further, the “self-grooming behavior vs vehicle-treated BTBR mice” value in the experiment on BTBR and B6 mice [1] (BTBR mice, ST-2223 2.5 mg/kg i.p.) is given as “failed to significantly mitigate”. Besides, the “time spent self-grooming vs vehicle-treated BTBR mice” value in the experiment on BTBR and B6 mice [1] (BTBR mice) was “significantly, and dose-dependently, decreased”. In the experiment with BTBR and B6 mice [2], the “total distance travelled (OFT)” value is “did not show any alteration”; the “time spent in the periphery (OFT), effect of treatment” value (“time spent in the periphery (OFT)” for short) was “no significant effect”; the “time spent in the central arena (OFT) vs vehicle-treated B6 mice” value is “did not alter”; the “time spent in center (OFT) vs vehicle-treated BTBR mice” value was “significantly increased”. In addition, in the experiment with malondialdehyde (MDA), the “MDA, Striatum” value is listed as 34.5 ± 5.5 µM MDA/mg protein; the “MDA, Hippocampus” value is reported as 38.1 ± 3.1 µM MDA/mg protein; the “MDA, Cerebellum” value was found to be 35.2 ± 1.8 µM MDA/mg protein; the “MDA, Prefrontal Cortex” value came out at 39.1 ± 3.2 µM MDA/mg protein.

Take `CC12CC3CC(C)(C1)CC(N)(C3)C2` [MEM, memantine]: the “time spent self-grooming vs vehicle-treated B6 mice” value with BTBR and B6 mice [1] was “significantly reduced”. The “time spent self-grooming vs vehicle-treated BTBR mice” value with BTBR and B6 mice [1] (BTBR mice) is “significantly reduced”. In the experiment with BTBR and B6 mice [2], the “total distance travelled (OFT)” value is listed as “did not show any alteration”; the “time spent in the periphery (OFT)” value is listed as “no significant effect”; the “time spent in the central arena (OFT) vs vehicle-treated B6 mice” value was “did not alter”; the “time spent in center (OFT) vs vehicle-treated BTBR mice” value was “failed to significantly mitigate”. Besides, in the experiment on malondialdehyde (MDA), the “MDA, Striatum” value came to 32.6 ± 4.1 µM MDA/mg protein; the “MDA, Hippocampus” value came to 32.8 ± 3.4 µM MDA/mg protein; the “MDA, Cerebellum” value turned out to be 26.7 ± 3.6 µM MDA/mg protein; the “MDA, Prefrontal Cortex” value came to 40.0 ± 5.7 µM MDA/mg protein.

`O=C1CCc2ccc(OCCCCN3CCN(c4cccc(Cl)c4Cl)CC3)cc2N1` [ARP, aripiprazole]: the “time spent self-grooming vs vehicle-treated B6 mice” value with BTBR and B6 mice [1] is on record as “did not alter”. Further, in the experiment on BTBR and B6 mice [2], the “total distance travelled (OFT)” value is recorded as “did not show any alteration”; the “time spent in the periphery (OFT)” value is reported as “no significant effect”; the “time spent in the central arena (OFT) vs vehicle-treated B6 mice” value is “did not alter”; the “time spent in center (OFT) vs vehicle-treated BTBR mice” value was “significantly increased”. Further, in the experiment with malondialdehyde (MDA), the “MDA, Striatum” value was 41.2 ± 1.4 µM MDA/mg protein; the “MDA, Hippocampus” value amounted to 32.9 ± 4.1 µM MDA/mg protein; the “MDA, Cerebellum” value is reported as 36.8 ± 1.8 µM MDA/mg protein; the “MDA, Prefrontal Cortex” value was found to be 43.0 ± 2.5 µM MDA/mg protein.

The values are drawn from publication PMC7920280, “The Multi-Targeting Ligand ST-2223 with Histamine H3 Receptor and Dopamine D2/D3 Receptor Antagonist Properties Mitigates Autism-Like Repetitive Behaviors and Brain Oxidative Stress in Mice” (International Journal of Molecular Sciences, 2021).
